The source of these data is patent publication US8124121B2, “Flavors, flavor modifiers, tastants, taste enhancers, umami or sweet tastants, and/or enhancers and use thereof” (Senomyx, Inc., priority 2003, dated 2012).

Test [1] concerns sweet taste, human panelists. The experiment in a line: Sweet flavor and sweet flavor enhancement measurement using human panelists. Particulars: 50 uM compound + 4% sucrose; pH not measured or controlled. The format is in vivo. On the procedure: Overview: Various concentrations of the experimental compound (normally aqueous solutions containing 1, 3, 10, and 30 uM concentrations of the experimental compound; and optionally 50 uM and/or 100 uM concentrations) are individually tasted by trained human subjects and rated for intensity of several taste attributes. The experimental compound may also be tasted when dissolved in a “key tastant” solution.
Procedure: An appropriate quantity of the experimental compound is dissolved in water typically also containing 0.1% ethanol, which is utilized to aid initial dispersion of the compound in the aqeuous stock solution. When appropriate, the experimental compound may also be dissolved in aqueous solutions of a “key tastant” (for example, 4% sucrose, 6% sucrose, 6% fructose/glucose, or 7% fructose/glucose, at pH 7.1 or 2.8).
Five human Subjects are used for preliminary taste tests. […] Subjects refrain from eating or drinking (except water) for at least 1 hour prior to the test. Subjects eat a cracker and rinse with water four times to clean the mouth before taste tests.
The aqueous solutions are dispensed in 10 ml volumes into 1 oz. sample cups and served to the Subjects at room temperature. Samples of the experimental compound dissolved in an appropriate key tastant (e.g., 4% sucrose, 6% fructose, or 6% fructose/glucose, typically at pH 7.1) at various concentrations of the experimental compound may also be served to the Subjects. Subjects also receive a reference sample of the key tastant (e.g., sucrose, fructose, or fructose/glucose, typically at pH 7.1) at different concentrations for comparison.
Subjects taste the solutions, starting with the lowest concentration, and rate intensity of the following attributes on the Labeled Magnitude Scale (LMS) for sweetness, saltiness, sourness, bitterness, savory (umami), and other (off-taste). Subjects rinse three times with water between tastings. If a particular concentration elicits an undesirable characteristic or off-taste, subsequent tastings of higher concentrations are eliminated. After a break, Subjects taste a solution of the key tastant (e.g., 4% sucrose, 6% fructose, or 6% fructose/glucose, typically at pH 7.1) without the experimental compound. Then solutions of the key tastant plus experimental compound are tasted in increasing order of concentration. The key tastant solution can be retasted for comparison with key tastant+experimental compound solutions if necessary. Discussion among panelists is permitted.
Subjects rate the difference in intensity of the test sample compared to the reference sample for the key attribute on a scale of −5 (much less sweet than the reference) to +5 (much more sweet than the reference). A score of 0 indicates the test sample is equally as sweet as the reference. […]

For test [2], the target named is T1, hT1R1/hT1R3 umami receptor (Homo sapiens, UniProt Q7RTX0+Q7RTX1).
T1 construct: expressed in transfected cells; host or cells: HEK293 derivative stably expressing Gα15, clone I-17, expression induced with mifepristone
T1 sequence (Q7RTX1 21-841): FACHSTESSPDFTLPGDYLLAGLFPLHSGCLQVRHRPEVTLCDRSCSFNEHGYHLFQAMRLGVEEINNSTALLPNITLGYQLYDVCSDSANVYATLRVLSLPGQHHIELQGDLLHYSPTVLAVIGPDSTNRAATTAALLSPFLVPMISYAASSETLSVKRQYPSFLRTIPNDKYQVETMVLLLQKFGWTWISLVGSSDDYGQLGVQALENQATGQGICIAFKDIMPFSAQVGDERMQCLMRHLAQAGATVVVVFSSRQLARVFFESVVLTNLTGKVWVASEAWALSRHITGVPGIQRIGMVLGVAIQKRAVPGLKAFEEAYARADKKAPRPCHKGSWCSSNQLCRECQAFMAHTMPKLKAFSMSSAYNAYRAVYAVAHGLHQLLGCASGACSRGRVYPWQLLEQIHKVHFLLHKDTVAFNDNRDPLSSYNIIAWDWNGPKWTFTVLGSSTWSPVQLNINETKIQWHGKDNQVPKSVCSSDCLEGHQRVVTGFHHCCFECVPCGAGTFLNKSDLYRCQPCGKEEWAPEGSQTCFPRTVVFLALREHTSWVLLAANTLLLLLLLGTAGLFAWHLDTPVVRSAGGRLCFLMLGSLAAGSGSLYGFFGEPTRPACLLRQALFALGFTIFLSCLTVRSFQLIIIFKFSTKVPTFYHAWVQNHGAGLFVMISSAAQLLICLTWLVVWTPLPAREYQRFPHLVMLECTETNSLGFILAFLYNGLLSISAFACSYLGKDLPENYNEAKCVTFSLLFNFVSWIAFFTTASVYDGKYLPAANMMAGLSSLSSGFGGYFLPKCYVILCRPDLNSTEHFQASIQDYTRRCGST
T1 sequence (Q7RTX0 21-852): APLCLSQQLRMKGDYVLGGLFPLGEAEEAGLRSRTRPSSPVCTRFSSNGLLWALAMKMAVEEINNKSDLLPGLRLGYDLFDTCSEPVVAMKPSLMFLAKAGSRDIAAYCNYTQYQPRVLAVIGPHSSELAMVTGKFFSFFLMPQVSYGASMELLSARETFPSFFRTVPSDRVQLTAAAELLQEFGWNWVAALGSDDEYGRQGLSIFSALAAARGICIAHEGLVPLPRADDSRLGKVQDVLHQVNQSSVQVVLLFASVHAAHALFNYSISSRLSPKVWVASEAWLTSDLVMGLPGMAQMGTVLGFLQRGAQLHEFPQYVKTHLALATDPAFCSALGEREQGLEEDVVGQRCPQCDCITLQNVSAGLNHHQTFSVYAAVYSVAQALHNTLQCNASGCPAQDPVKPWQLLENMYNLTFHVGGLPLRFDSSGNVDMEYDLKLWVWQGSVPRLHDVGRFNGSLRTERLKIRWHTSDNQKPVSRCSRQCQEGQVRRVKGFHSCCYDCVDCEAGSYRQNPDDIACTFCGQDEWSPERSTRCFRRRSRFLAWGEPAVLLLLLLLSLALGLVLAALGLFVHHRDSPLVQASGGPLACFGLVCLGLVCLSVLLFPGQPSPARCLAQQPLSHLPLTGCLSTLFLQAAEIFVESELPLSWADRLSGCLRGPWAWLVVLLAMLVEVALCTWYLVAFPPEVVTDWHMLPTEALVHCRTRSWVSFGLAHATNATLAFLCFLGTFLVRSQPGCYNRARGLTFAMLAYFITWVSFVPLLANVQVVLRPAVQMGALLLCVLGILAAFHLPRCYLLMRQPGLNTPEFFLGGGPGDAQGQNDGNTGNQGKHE
The experiment in a line: Umami taste enhancement activity assay (EC50 ratio vs. MSG). It is filed as cell-based. On the procedure: A series of measurements of the dose response is run in solutions comprising MSG alone, then a second dose response is run with MSG in combination with predetermined amounts of a candidate compound of Formula (I) at the same time.
Typical compound concentrations tested were 30 μM, 10 μM, 3 μM, 1 μM, 0.3 μM, 0.1 μM and 0.03 μM. The relative efficacy of compounds of Formula (I) at enhancing the receptor was determined by calculating the magnitude of a shift in the EC50 for monosodium glutamate. Enhancement was defined as a ratio (EC50R) corresponding to the EC50 of monosodium glutamate, determined in the absence of the test compound, divided by the EC50 of monosodium glutamate, determined in the presence of the test compound.
Stated alternatively, “EC50 ratio” as compared to MSG is calculated based on the following definitions: EC50 Ratio vs. MSG=EC50 (MSG)/EC50(MSG+[Compound]) • wherein “[compound]” refers to the concentration of the compound of Formula (I) used to elicit (or enhance or potentiate) the MSG dose response.

The test system of test [3] is savory taste, human panelists. The experiment in a line: Umami/savory flavor experiments using human panelists (trained panel, difference from reference). It is filed as in vivo. The note with it: 12 mM MSG + cpd vs reference 12 mM MSG + 100 μM IMP. On the procedure: General Panelist Selection: Basic screening of sensory taste testers: Potential panelists were tested for their abilities to rank and rate intensities of solutions representing the five basic tastes. Panelists ranked and rated intensity of five different concentrations of each of the five following compounds: sucrose (sweet), sodium chloride (salty), citric acid (sour), caffeine (bitter), and monosodium glutamate (savory). In order to be selected for participation in testing, panelists needed to correctly rank and rate samples for intensity, with a reasonable number of errors
Preliminary Taste Tests: The panelists selected in the above procedure were deemed qualified for performing Preliminary Taste Testing procedures. The preliminary taste tests are used to evaluate new compounds for intensity of basic tastes and off-tastes. A small group of panelists (n=5) taste approximately 5 concentrations of the compound (range typically between 1-100 μM, in half-log cycles, e.g., 1, 3, 10, 30, and 100 μM) in water and in a solution of 12 mM MSG to evaluate enhancement. Panelists rate the five basic tastes (sweet, salty, sour, bitter, and savory) as well as off-tastes (such as chemical, metallic, sulfur) on a labeled magnitude scale. Samples are served in 10 mL portions at room temperature. The purpose of the test is to determine the highest concentration at which there is no objectionable off-taste, and determine if obvious savory taste or enhancement of savory taste exists at any of the concentrations tested.
Trained Panelist Selection: A trained expert panel was used to further evaluate compounds that had been tested with the preliminary taste test.
Panelists for the trained panel were selected from the larger group of qualifying taste panelists. Panelists were further trained on savory taste by ranking and rating experiments using MSG and IMP combinations. Panelists completed a series of ranking, rating, and difference from reference tests with savory solutions. In ranking and rating experiments, panelists evaluated easy MSG concentrations (0, 6, 18, 36 mM) and more difficult MSG concentrations (3, 6, 12, 18 mM MSG) in water.
Compound testing with Trained Panel: Compounds tested by the trained panel were evaluated in difference from reference experiments. […] Test samples were solutions with varying amounts of MSG, IMP, and the compound.
Compounds were tested against the reference in samples with and without 12 mM MSG. All samples were presented in 10 ml volumes at room temperature. Two sessions were completed for each compound tested to evaluate panel reproducibility.

For `O=C(Nc1ccc2c(c1)OCO2)N1Cc2ccccc2C1` [Example 174, N-(3,4-methylenedioxyphenyl)isoindoline-2-carboxamide], the “Perceived Equivalent Sweet Solution” value in test [1] is reported as 6% sucrose.

Regarding `CCCC(CCC)NC(=O)c1ccc2c(c1)OCO2` [Example 1, N-(heptan-4-yl)benzo[d][1,3]dioxole-5-carboxamide], the “EC50 ratio (enhanced the effectiveness of monosodium glutamate)” value in test [2] (compound present at 0.03 μM) was found to be 6.92. Further, in test [3], the “Taste Data: concentration of cpd with 12 mM MSG that is as strong as 12 mM MSG + 100 μM IMP” value (shortened to “Taste Data: concentration of cpd”) is 12 mM MSG + 3 μM cpd as strong as.

For `COC(=O)[C@@H](CC(C)C)NC(=O)c1cc(C)c(C)o1` [Example 98, (R)-methyl-2-(2,3-dimethylfuran-5-carboxamido)-4-methylpentanoate], the “Taste Data: concentration of cpd” value in test [3] was 12 mM MSG + 10 μM cpd as strong as.

Regarding `COC(=O)[C@@H](CC(C)C)NC(=O)c1ccc2c(c1)OCO2` [Example 6, (R)-methyl 2-(benzo[d][1,3]dioxole-6-carboxamido)-4-methylpentanoate], the “EC50 ratio (enhanced the effectiveness of monosodium glutamate)” value in test [2] (compound present at 0.1 μM) is 4.9. Moreover, in test [3], the “Taste Data: concentration of cpd” value is listed as 12 mM MSG + 10 μM cpd as strong as.

Regarding `COC[C@@H](CC(C)C)NC(=O)c1ccc(OC)c(C)c1` [Example 104, 4-Methoxy-N-(1-methoxymethyl-3-methyl-butyl)-3-methyl-benzamide], the “Taste Data: concentration of cpd” value in test [3] was 12 mM MSG + 3 μM cpd as strong as.

Take `COc1ccc(CNC(=O)C(=O)NCCc2ccccn2)c(OC)c1` [Example 123, N-(2,4-Dimethoxy-benzyl)-N′-(2-pyridin-2-yl-ethyl)-oxalamide]: the “EC50 ratio (enhanced the effectiveness of monosodium glutamate)” value in test [2] (compound present at 0.3 μM) was determined as 6.51. In addition, in test [3], the “Taste Data: concentration of cpd” value is 12 mM MSG + 1 μM cpd as strong as.

Consider `CCOc1ccc(NC(=O)NCCc2ccccn2)cc1` [Example 160, 1-(4-ethoxyphenyl)-3-(2-(pyridine-2-yl)ethyl)urea], for which the “EC50 ratio (enhanced the effectiveness of monosodium glutamate)” value in test [2] (compound present at 1 μM) is given as 4.2.

As for `CCCC(CCC)NC(=O)/C=C/c1cccs1` [Example D6, N-(1-Propyl-butyl)-3-thiophen-2-yl-acrylamide], the “Ec50 ratio (vs. MSG)” value in test [2] (Table D, compound @ 1 uM) stood at 6.3.

For the molecule `CCCC(CCC)NC(=O)c1ccc2c(c1)OC(F)(F)O2` [Example 22, 2,2-difluoro-N-(heptan-4-yl)benzo[d][1,3]dioxole-5-carboxamide], in test [2] (compound present at 1 μM), the “EC50 ratio (enhanced the effectiveness of monosodium glutamate)” value was determined as 2.87.

With `COC[C@@H](CC(C)C)NC(=O)c1ccc(C)c(C)c1` [Example 71, (R)—N-(1-methoxy-4-methylpentan-2-yl)-3,4-dimethylbenzamide], in test [3], the “Taste Data: concentration of cpd” value is recorded as 12 mM MSG + 3 μM cpd as strong as.

For the molecule `CCCC(CCC)NC(=O)c1ccc2c(c1)OC(C)O2` (centres unmarked) [Example 18, N-(heptan-4-yl)-2-methylbenzo[d][1,3]dioxole-5-carboxamide], the “EC50 ratio (enhanced the effectiveness of monosodium glutamate)” value in test [2] (compound present at 0.03 μM) worked out at 3.68.
